Test results reported in paper PMC8948245, “Mechanistic insights into the regulation of plant phosphate homeostasis by the rice SPX2 – PHR2 complex” (Nature Communications, 2022).

What was measured:
[1] = biological target: T1, SPX2^1–280/PHR2^225–362 (rice) (Oryza sativa, UniProt Q6Z784, L28A); assay: co-expression coupled Ni-NTA pull-down (InsP6-dependent SPX2-PHR2 association); assay type: biochemical; settings: 1 mM InsP6, pH 8.0, 150 mM NaCl; indirect read-out
T1 construct: untagged full-length SPX2 (residues 1-280) co-expressed with 8xHis-tagged PHR2 225-362 in E. coli; 2:2 complex; with Protein PHOSPHATE STARVATION RESPONSE 2

OsSPX1 = biological target: T2, OsSPX1 (Oryza sativa, UniProt Q69XJ0); assay: analytical SEC (profile shift with InsP6); assay type: binding; settings: pH 8.0, 150 mM NaCl
T2 construct: gene SPX1; full-length, N-terminal 6xHis tag removed by drICE protease; E. coli BL21(DE3)
T2 sequence (Q69XJ0 1-295): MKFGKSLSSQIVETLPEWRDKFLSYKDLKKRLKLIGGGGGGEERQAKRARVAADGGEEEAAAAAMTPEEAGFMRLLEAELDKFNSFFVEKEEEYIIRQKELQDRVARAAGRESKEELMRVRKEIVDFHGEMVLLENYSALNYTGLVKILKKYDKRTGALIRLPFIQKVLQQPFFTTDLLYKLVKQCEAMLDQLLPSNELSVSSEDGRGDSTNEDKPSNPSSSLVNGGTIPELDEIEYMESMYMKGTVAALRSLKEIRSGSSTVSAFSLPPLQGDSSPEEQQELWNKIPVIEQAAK

OsSPX4 = biological target: T3, OsSPX4 (Oryza sativa, UniProt Q10B79); assay: analytical SEC (profile shift with InsP6); assay type: binding; settings: pH 8.0, 150 mM NaCl
T3 construct: gene SPX4; full-length, N-terminal 6xHis tag removed by drICE protease; E. coli BL21(DE3)
T3 sequence (Q10B79 1-320): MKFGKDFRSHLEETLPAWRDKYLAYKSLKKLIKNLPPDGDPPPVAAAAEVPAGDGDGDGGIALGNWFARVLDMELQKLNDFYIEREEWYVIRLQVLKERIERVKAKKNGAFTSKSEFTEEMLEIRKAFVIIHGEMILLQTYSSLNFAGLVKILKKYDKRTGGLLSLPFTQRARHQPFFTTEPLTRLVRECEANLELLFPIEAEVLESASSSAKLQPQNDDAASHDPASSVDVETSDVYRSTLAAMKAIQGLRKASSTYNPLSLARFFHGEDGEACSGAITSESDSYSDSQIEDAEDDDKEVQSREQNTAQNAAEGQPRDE

OsSPX2^1-267/Δ47-64 = biological target: T4, OsSPX2^1-267/Δ47-64 (Oryza sativa, UniProt Q6Z784, DEL47-64); assay: analytical SEC and AUC (change of oligomeric state); assay type: binding; settings: AUC with or without 1 mM InsP6, pH 8.0, 150 mM NaCl, 18 °C; no PHR2
T4 construct: gene SPX2; residues 1-267 lacking 47-64, C-terminal 8xHis tag, excess SPX2 separated from co-expressed PHR2 231-362; E. coli; monomer with InsP6
T4 sequence (Q6Z784 with tags, fused parts or gaps DEL47-64): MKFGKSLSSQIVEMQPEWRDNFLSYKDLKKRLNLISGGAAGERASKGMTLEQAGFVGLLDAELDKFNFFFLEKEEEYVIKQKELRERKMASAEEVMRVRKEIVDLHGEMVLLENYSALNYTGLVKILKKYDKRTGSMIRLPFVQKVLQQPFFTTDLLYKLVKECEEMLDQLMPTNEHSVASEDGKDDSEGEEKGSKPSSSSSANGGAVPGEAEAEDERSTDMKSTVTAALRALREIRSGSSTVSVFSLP

[2] = biological target: T5, SPX2^1–280/PHR2^225–362 (rice) (Oryza sativa, UniProt Q6Z784, Y25A); assay: co-expression coupled Ni-NTA pull-down (InsP6-dependent SPX2-PHR2 association); assay type: biochemical; settings: 1 mM InsP6, pH 8.0, 150 mM NaCl; indirect read-out
T5 construct: untagged full-length SPX2 (residues 1-280) co-expressed with 8xHis-tagged PHR2 225-362 in E. coli; 2:2 complex; with Protein PHOSPHATE STARVATION RESPONSE 2

AtSPX2 = biological target: T6, AtSPX2 (Arabidopsis thaliana, UniProt O48781); assay: analytical SEC (profile shift with InsP6); assay type: binding; settings: pH 8.0, 150 mM NaCl
T6 construct: gene SPX2; full-length, N-terminal 6xHis tag removed by drICE protease; E. coli BL21(DE3)
T6 sequence (O48781 1-287): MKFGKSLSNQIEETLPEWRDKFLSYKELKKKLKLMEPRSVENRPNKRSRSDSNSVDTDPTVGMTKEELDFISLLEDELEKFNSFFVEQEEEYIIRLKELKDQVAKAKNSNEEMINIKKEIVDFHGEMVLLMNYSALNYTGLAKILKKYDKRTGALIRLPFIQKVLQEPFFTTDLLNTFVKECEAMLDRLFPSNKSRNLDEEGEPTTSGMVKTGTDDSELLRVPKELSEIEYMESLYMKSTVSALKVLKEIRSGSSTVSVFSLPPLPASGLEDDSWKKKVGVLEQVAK

AtSPX4 = biological target: T7, AtSPX4 (Arabidopsis thaliana, UniProt Q94A21); assay: analytical SEC (profile shift with InsP6); assay type: binding; settings: pH 8.0, 150 mM NaCl
T7 construct: gene SPX4; full-length, N-terminal 6xHis tag removed by drICE protease; E. coli BL21(DE3)
T7 sequence (Q94A21 1-318): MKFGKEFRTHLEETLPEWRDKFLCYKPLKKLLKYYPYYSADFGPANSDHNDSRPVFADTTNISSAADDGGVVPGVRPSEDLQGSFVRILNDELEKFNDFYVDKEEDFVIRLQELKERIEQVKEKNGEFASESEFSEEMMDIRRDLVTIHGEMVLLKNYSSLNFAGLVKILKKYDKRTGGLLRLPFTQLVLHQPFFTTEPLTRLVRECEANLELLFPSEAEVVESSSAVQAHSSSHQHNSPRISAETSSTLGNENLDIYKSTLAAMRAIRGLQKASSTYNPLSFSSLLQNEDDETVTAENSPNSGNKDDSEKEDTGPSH

[3] = biological target: T8, SPX2^1–280/PHR2^225–362 (rice) (Oryza sativa, UniProt Q6Z784, K29A); assay: co-expression coupled Ni-NTA pull-down (InsP6-dependent SPX2-PHR2 association); assay type: biochemical; settings: 1 mM InsP6, pH 8.0, 150 mM NaCl; indirect read-out
T8 construct: untagged full-length SPX2 (residues 1-280) co-expressed with 8xHis-tagged PHR2 225-362 in E. coli; 2:2 complex; with Protein PHOSPHATE STARVATION RESPONSE 2

[4] = biological target: T9, SPX2^1–280/PHR2^225–362 (rice) (Oryza sativa, UniProt Q6Z784, Y25F); assay: as above; assay type: biochemical; settings: 1 mM InsP6, pH 8.0, 150 mM NaCl; indirect read-out
T9 construct: untagged full-length SPX2 (residues 1-280) co-expressed with 8xHis-tagged PHR2 225-362 in E. coli; 2:2 complex; with Protein PHOSPHATE STARVATION RESPONSE 2

[5] = biological target: T10, SPX2^1–280/PHR2^225–362 (rice) (Oryza sativa, UniProt Q6Z784, K143A/K147A); assay: as above; assay type: biochemical; settings: 1 mM InsP6, pH 8.0, 150 mM NaCl; indirect read-out
T10 construct: untagged full-length SPX2 (residues 1-280) co-expressed with 8xHis-tagged PHR2 225-362 in E. coli; 2:2 complex; with Protein PHOSPHATE STARVATION RESPONSE 2

[6] = biological target: the molecule itself; assay: crystal structure; mH2A1.1^181–366-tagged SPX2^1-202/∆47-59 / InsP6 / PHR2^225–362 ternary complex, 10 mM InsP6 supplied, hanging drop, 18 °C, 3.1 Å
[7] = biological target: T11, His-tagged PHR2^225–362 (rice PHR2, MYB domain and CC domain) (rice (Oryza sativa), UniProt Q6Z156 225-362); assay: AUC; sedimentation velocity of the purified SPX2/PHR2 complex, 25 mM Tris-HCl pH 8.0, 150 mM NaCl, 1 mM InsP6, 18 °C, 0.7 mg ml^-1; settings: both partners purified
T11 construct: pET21b, C-terminal 8×His tag; codon-optimised synthetic cDNA; also called PHR2-His; source: E. coli BL21(DE3), co-expressed with SPX2; not shown: 8×His, C-terminal, kept

[8] = biological target: PHR2 MYB domain (crystal) (Oryza sativa, UniProt B8B5N8 180-313); assay: X-ray crystallography, 2.7 A; EMSA: 10 nM FAM-DNA, 0.3375-0.8 uM PHR2, 25 mM Tris-HCl pH 8.0, 150 mM NaCl, 5 mM DTT, 10% glycerol, 200 ng/ml heparin, 4 C, 30 min; crystal: 13% PEG 3350, 0.1; settings: protein: recombinant; tags: C-terminal 8xHis (general PHR2 cloning); chain copies: 2; 5' overhang 1 nt on each strand, 15 bp
Sequence of PHR2 MYB domain (crystal) (B8B5N8 180-313): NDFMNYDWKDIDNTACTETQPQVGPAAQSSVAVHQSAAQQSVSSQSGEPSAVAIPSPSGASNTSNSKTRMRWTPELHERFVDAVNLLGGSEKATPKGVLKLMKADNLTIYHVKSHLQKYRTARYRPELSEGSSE

T1 sequence (Q6Z784 whole entry L28A, the tested form may be a part): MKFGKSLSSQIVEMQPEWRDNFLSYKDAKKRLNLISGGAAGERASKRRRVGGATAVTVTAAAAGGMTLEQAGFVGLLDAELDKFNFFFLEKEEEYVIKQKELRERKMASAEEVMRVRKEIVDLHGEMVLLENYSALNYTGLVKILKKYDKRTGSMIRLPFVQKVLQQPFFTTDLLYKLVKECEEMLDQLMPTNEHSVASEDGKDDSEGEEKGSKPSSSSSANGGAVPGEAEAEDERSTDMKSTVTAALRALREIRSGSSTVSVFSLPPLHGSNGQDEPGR
T1 sequence (Q6Z156 225-362 partner): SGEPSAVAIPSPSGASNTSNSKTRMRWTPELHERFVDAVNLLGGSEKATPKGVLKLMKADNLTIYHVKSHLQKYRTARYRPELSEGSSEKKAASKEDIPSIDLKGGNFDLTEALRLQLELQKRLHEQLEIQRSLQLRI
T9 sequence (Q6Z784 whole entry Y25F, the tested form may be a part): as the sequence (Q6Z784 whole entry L28A, the tested form may be a part) above, with Y25F, A28L counted along it
T9 sequence (Q6Z156 225-362 partner): as the sequence (Q6Z156 225-362 partner) above
T8 sequence (Q6Z784 whole entry K29A, the tested form may be a part): as the sequence (Q6Z784 whole entry L28A, the tested form may be a part) above, with A28L, K29A counted along it
T8 sequence (Q6Z156 225-362 partner): as the sequence (Q6Z156 225-362 partner) above
T10 sequence (Q6Z784 whole entry K143A/K147A, the tested form may be a part): as the sequence (Q6Z784 whole entry L28A, the tested form may be a part) above, with A28L, K143A, K147A counted along it
T10 sequence (Q6Z156 225-362 partner): as the sequence (Q6Z156 225-362 partner) above
T5 sequence (Q6Z784 whole entry Y25A, the tested form may be a part): as the sequence (Q6Z784 whole entry L28A, the tested form may be a part) above, with Y25A, A28L counted along it
T5 sequence (Q6Z156 225-362 partner): as the sequence (Q6Z156 225-362 partner) above
T11 sequence (Q6Z156 225-362): as the sequence (Q6Z156 225-362 partner) above

O=P(O)(O)O[C@H]1[C@H](OP(=O)(O)O)[C@@H](OP(=O)(O)O)[C@H](OP(=O)(O)O)[C@@H](OP(=O)(O)O)[C@H]1OP(=O)(O)O [InsP6]
co-expression coupled Ni-NTA pull-down (InsP6-dependent SPX2-PHR2 association) [1]: strongly reduced or abolished by the Y25F, Y25A, L28A, K29A, or K143A/K147A substitutions of SPX2
analytical SEC (profile shift with InsP6) (OsSPX1): their SEC profiles differ strongly in the presence of InsP6
analytical SEC (profile shift with InsP6) (OsSPX4): their SEC profiles differ strongly in the presence of InsP6
analytical SEC and AUC (change of oligomeric state) (OsSPX2^1-267/Δ47-64): InsP6 binding appears to stabilize the domain into a monomeric state
co-expression coupled Ni-NTA pull-down (InsP6-dependent SPX2-PHR2 association) [2]: strongly reduced or abolished by the Y25F, Y25A, L28A, K29A, or K143A/K147A substitutions of SPX2
analytical SEC (profile shift with InsP6) (AtSPX2): their SEC profiles differ strongly in the presence of InsP6
analytical SEC (profile shift with InsP6) (AtSPX4): their SEC profiles differ strongly in the presence of InsP6
co-expression coupled Ni-NTA pull-down (InsP6-dependent SPX2-PHR2 association) [3]: strongly reduced or abolished by the Y25F, Y25A, L28A, K29A, or K143A/K147A substitutions of SPX2
co-expression coupled Ni-NTA pull-down (InsP6-dependent SPX2-PHR2 association) [4]: strongly reduced or abolished by the Y25F, Y25A, L28A, K29A, or K143A/K147A substitutions of SPX2
co-expression coupled Ni-NTA pull-down (InsP6-dependent SPX2-PHR2 association) [5]: strongly reduced or abolished by the Y25F, Y25A, L28A, K29A, or K143A/K147A substitutions of SPX2

B1: mH2A1.1^181–366-tagged SPX2^1-202/∆47-59 (domain or fragment, rice (Oryza sativa), UniProt Q6Z784 1-202, looked up)
chain: MKFGKSLSSQIVEMQPEWRDNFLSYKDLKKRLNLISGGAAGERASKAAAAGGMTLEQAGFVGLLDAELDKFNFFFLEKEEEYVIKQKELRERKMASAEEVMRVRKEIVDLHGEMVLLENYSALNYTGLVKILKKYDKRTGSMIRLPFVQKVLQQPFFTTDLLYKLVKECEEMLDQLMPTNEHSVASEDG
notes: rice (Oryza sativa) SPX2, residues 1-202 with residues 47-59 (R47-T59) deleted; also called crystallized construct
stoichiometry N [6]: 2
stoichiometry N [7]: 1 SPX2:PHR2 ratio (2:2)

B2: P1BS crystal DNA (dsDNA)
DNA 1: GCTTGAGGATATCCGA
DNA 2: CTCGGATATCCTCAAG
binding result [8]: binds
